In article PMC3954451 (Journal of Medicinal Chemistry, 2014):

Key:
Caco-2 cells [1] = conditions: 10 μM, 2 h
[2] = cited from earlier work
Caco-2 cells [3] = conditions: cited from earlier work

Compound	membrane permeability in the apical to basolateral (A→B) direction, in words (Caco-2 cells [1])	further results
Cl.Cl.Cl.Nc1ccc2ccc(CCNCCc3cccc(Cl)c3)cc2n1 [Compound 15, 7-[(3-Chlorophenethylamino)ethyl]quinolin-2-amine Dihydrochloride]	good	–
Nc1ccccn1 [2-aminopyridine]	–	pKa [2]: 7.1
Cl.Cl.N=C(Nc1cccc(CNCCc2cccc(F)c2)c1)c1cccs1 [Compound 3]	–	Caco-2 permeability, in words (Caco-2 cells [3]): poor
Cl.Cl.Nc1ccc2ccc(CCNCCc3cccc(F)c3)cc2n1 [Compound 7, 7-[(3-Fluorophenethylamino)ethyl]quinolin-2-amine Dihydrochloride]	good	–
